Measurements published in ChEMBL document CHEMBL5725512, “Fused bicyclic 1,2,4-triazine compounds as TAM inhibitors” (2017).

The compounds below were run against T1, Phosphatidylinositol 4,5-bisphosphate 3-kinase catalytic subunit delta isoform (Homo sapiens, UniProt O00329) (assay: PI3K Delta Assay: In some embodiments, the PI3Kδ inhibitor is selective. By ¿selective¿ is meant that the compound binds to or inhibits a kinase with greater affinity or potency, respectively, compared to at least one other kinase. In some embodiments, the PI3Kδ inhibitors are selective inhibitors of PI3Kδ (e.g., over PI3Kα, PI3Kβ and PI3Kγ). In some embodiments, selectivity can be at least about 2-fold, 5-fold, 10-fold, at least about 20-fold, at least about 50-fold, at least about 100-fold, at least about 200-fold, at least about 500-fold or at least about 1000-fold. Selectivity can be measured by methods routine in the art. In some embodiments, selectivity can be tested at the Km ATP concentration of each enzyme. In some embodiments, the selectivity of compounds described herein can be determined by cellular assays associated with particular PI3K kinase activity.).
T1 sequence (O00329 whole entry): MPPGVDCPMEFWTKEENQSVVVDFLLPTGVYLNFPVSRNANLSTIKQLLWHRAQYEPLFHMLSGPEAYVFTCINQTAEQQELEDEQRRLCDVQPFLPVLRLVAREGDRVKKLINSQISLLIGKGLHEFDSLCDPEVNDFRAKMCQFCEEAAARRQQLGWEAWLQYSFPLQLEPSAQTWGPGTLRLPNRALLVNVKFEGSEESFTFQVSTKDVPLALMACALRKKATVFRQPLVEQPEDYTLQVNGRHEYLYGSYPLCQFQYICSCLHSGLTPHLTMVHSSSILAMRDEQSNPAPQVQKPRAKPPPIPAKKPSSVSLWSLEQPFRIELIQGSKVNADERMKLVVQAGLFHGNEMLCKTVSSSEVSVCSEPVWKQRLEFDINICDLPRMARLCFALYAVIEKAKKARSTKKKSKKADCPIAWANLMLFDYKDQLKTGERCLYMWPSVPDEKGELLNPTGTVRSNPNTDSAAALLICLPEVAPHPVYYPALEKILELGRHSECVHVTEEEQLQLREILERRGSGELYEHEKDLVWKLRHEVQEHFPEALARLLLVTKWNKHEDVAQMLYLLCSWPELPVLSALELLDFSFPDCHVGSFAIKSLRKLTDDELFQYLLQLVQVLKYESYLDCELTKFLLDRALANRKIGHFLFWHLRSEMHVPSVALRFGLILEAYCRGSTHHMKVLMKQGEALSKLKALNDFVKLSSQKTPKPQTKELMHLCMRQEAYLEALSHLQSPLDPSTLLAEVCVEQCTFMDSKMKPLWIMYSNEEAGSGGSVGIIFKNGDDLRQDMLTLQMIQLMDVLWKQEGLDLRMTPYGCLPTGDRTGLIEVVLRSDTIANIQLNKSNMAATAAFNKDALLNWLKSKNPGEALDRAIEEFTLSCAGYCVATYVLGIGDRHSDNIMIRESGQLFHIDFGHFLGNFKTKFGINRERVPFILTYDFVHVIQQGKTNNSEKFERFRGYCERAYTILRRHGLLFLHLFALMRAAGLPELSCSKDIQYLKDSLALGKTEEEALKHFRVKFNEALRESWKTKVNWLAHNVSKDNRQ

**Q.** With `CCOc1c(C(C)n2nc(C)c3c(N)ncnc32)cc(C)c(C#N)c1-c1ccc(C(=O)N(C)C)nc1` (stereo unspecified) as the compound, how does the IC50 read?
**A.** < 0.05 µM

Each compound was assayed against Tyrosine-protein kinase JAK1 (Homo sapiens, UniProt P23458) (assay: JAK1 Assay: As used herein, a selective JAK1 inhibitor is an inhibitor of JAK1 which is selective for JAK1 over JAK2, JAK3 and TYK2. In some embodiments, the compounds or salts are about 10-fold more selective for JAK1 over JAK2. In some embodiments, the compounds or salts are about 10-fold, about 15-fold, or about 20-fold more selective for JAK1 over JAK2 as calculated by measuring IC50 at 1 mM …).
Chain of Tyrosine-protein kinase JAK1 (P23458 whole entry): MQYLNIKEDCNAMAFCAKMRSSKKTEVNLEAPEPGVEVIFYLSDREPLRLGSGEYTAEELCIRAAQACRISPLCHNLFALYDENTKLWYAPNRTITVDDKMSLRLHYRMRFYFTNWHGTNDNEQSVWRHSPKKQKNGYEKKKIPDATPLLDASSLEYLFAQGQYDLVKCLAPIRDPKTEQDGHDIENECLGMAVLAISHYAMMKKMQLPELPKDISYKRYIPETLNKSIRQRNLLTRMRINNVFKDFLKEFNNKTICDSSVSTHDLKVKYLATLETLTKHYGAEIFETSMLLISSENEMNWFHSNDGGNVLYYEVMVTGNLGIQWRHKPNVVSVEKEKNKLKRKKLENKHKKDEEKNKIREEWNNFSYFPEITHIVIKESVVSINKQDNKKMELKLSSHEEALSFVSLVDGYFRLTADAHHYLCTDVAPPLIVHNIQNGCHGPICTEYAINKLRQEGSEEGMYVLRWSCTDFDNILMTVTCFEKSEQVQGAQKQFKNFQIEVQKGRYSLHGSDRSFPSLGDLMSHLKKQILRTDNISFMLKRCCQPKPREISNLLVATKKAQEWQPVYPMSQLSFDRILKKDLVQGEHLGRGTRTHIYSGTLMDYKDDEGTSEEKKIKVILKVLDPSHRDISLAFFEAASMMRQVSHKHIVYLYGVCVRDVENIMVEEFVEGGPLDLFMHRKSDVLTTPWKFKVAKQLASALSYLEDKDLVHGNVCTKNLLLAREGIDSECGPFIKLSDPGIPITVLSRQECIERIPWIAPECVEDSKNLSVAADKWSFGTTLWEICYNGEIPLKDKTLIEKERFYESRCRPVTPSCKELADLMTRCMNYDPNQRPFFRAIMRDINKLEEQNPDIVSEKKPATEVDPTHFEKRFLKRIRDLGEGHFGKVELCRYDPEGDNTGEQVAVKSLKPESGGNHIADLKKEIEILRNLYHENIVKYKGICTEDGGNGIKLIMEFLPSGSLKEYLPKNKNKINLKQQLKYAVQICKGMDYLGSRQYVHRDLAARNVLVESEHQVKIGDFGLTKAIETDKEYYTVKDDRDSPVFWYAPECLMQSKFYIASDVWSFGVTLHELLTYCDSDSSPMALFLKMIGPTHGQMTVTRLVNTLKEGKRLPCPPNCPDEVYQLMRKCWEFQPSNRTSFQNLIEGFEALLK

**Q.** How did the IC50 turn out when `N#CCC1(n2cc(-c3ncnc4[nH]ccc34)cn2)CN(C2CCN(C(=O)Nc3ccc(F)cc3C(F)(F)F)CC2)C1` was run?
**A.** < 0.01 µM

**Q.** Which IC50 does the source give for `N#CCC1(n2cc(-c3ncnc4[nH]ccc34)cn2)CN(C2CCN(C(=O)c3ccnc(C(F)(F)F)n3)CC2)C1` here?
**A.** < 0.01 µM

**Q.** How did the IC50 turn out when `N#CC[C@]1(n2cc(-c3ncnc4[nH]ccc34)cn2)C[C@H](N2CCC(Oc3cc(CN4CC(O)C4)cc(C(F)(F)F)n3)CC2)C1` was run?
**A.** < 0.01 µM

**Q.** `N#CCC(C1CCN(c2nc3cccnc3o2)C1)n1cc(-c2ncnc3[nH]ccc23)cn1` (stereo unspecified) was tested. Which IC50 did it give?
**A.** < 0.01 µM

**Q.** `N#CC[C@]1(n2cc(-c3ncnc4[nH]ccc34)cn2)C[C@H](N2CCN(C(=O)c3ccnc(C(F)(F)F)n3)CC2)C1` was tested. Which IC50 did it give?
**A.** < 0.01 µM

**Q.** How did the IC50 turn out when `CCNCc1cc(O[C@H]2CC[C@@H](N3CC(CC#N)(n4cc(-c5ncnc6[nH]ccc56)cn4)C3)CC2)nc(C(F)(F)F)c1` was run?
**A.** < 0.01 µM

**Q.** Which IC50 does the source give for `C[C@H](O)CNCc1cc(OC2CCN([C@H]3C[C@](CC#N)(n4cc(-c5ncnc6[nH]ccc56)cn4)C3)CC2)nc(C(F)(F)F)c1` here?
**A.** < 0.01 µM

**Q.** How did the IC50 turn out when `N#CCC(CN1CCN(C(=O)c2ccc(C#N)cc2F)CC1)n1ccc(-c2ncnc3[nH]ccc23)c1` (stereo unspecified) was run?
**A.** < 0.01 µM

**Q.** With `N#CCC1(n2cc(-c3ncnc4[nH]ccc34)cn2)CN([C@H]2CC[C@@H](Oc3cc(CCO)nc(C(F)(F)F)n3)CC2)C1` as the compound, how does the IC50 read?
**A.** < 0.01 µM

**Q.** `N#CC[C@]1(n2cc(-c3ncnc4[nH]ccc34)cn2)C[C@H](N2CCC(Oc3cc(CCO)cc(C(F)(F)F)n3)CC2)C1` was tested. Which IC50 did it give?
**A.** < 0.01 µM

**Q.** Which IC50 does the source give for `CC(C)(O)c1cc(O[C@H]2CC[C@@H](N3CC(CC#N)(n4cc(-c5ncnc6[nH]ccc56)cn4)C3)CC2)nc(C(F)(F)F)c1` here?
**A.** < 0.01 µM

**Q.** `C[C@@H](CO)NCc1cc(OC2CCN([C@H]3C[C@](CC#N)(n4cc(-c5ncnc6[nH]ccc56)cn4)C3)CC2)nc(C(F)(F)F)c1` was tested. Which IC50 did it give?
**A.** < 0.01 µM

**Q.** Which IC50 does the source give for `C[C@@H](O)c1nc2cnc3ccsc3c2n1[C@H]1CC[C@H](CC#N)OC1` here?
**A.** < 0.1 µM

**Q.** With `C[C@@H](O)CNCc1cc(OC2CCN([C@H]3C[C@](CC#N)(n4cc(-c5ncnc6[nH]ccc56)cn4)C3)CC2)nc(C(F)(F)F)c1` as the compound, how does the IC50 read?
**A.** < 0.01 µM

**Q.** How did the IC50 turn out when `C[C@H](NC(=O)c1cc(F)c(N2CC(CC#N)(n3cc(-c4ncnc5[nH]ccc45)cn3)C2)cc1F)C(F)(F)F` was run?
**A.** < 0.01 µM

**Q.** `N#CC[C@]1(n2cc(-c3ncnc4[nH]ccc34)cn2)C[C@H](N2CCC(Oc3cc(CN4CCC[C@H]4CO)cc(C(F)(F)F)n3)CC2)C1` was tested. Which IC50 did it give?
**A.** < 0.01 µM

**Q.** For `N#CCC1(n2cc(-c3ncnc4[nH]ccc34)cn2)CN([C@H]2CC[C@@H](Oc3cc(CN4CC[C@@H](O)C4)cc(C(F)(F)F)n3)CC2)C1`, which IC50 is on record?
**A.** < 0.01 µM

**Q.** For `N#CCC1(n2cc(-c3ncnc4[nH]ccc34)cn2)CN([C@H]2CC[C@@H](Oc3cc(CN4CC[C@H](O)C4)cc(C(F)(F)F)n3)CC2)C1` (single isomer, unassigned), which IC50 is on record?
**A.** < 0.01 µM

**Q.** With `N#CCC(C1CCN(c2cccc(Cl)n2)C1)n1cc(-c2ncnc3[nH]ccc23)cn1` (single isomer, unassigned) as the compound, how does the IC50 read?
**A.** < 0.01 µM

**Q.** How did the IC50 turn out when `N#CCC1(n2cc(-c3ncnc4[nH]ccc34)cn2)CN(C2CCN(C(=O)c3ccnc(C(F)(F)F)c3F)CC2)C1` [ITACITINIB] was run?
**A.** < 0.01 µM
